Source: patent US7772271B2 (priority 2004, dated 2010)

| melting point | Structure (SMILES) |
| --- | --- |
| 125 to 128 °C | N#Cc1c(-c2ccc(Nc3ccccc3Cl)cc2)n(C2CCC2)c2cc(OC3CCOCC3)ccc12 [Compound 3160] |
| 144 to 154 °C | CC(C)OC(=O)Nc1c(F)cc(-c2c(C#N)c3ccc(Oc4ncccn4)cc3n2C2CCC2)cc1F [Compound 3036] |
| 279 to 285 °C | N#Cc1c(-c2ccc(NS(=O)(=O)C3CC3)cc2)n(C2CCC2)c2cc(OC3CCS(=O)(=O)CC3)ccc12 [Compound 3185] |
| 173 to 181 °C | CC(C)NC(=O)Nc1ccc(-c2c(C#N)c3ccc(Oc4ncccn4)cc3n2C2CCC2)cc1C#N [Compound 3325] |
| 205 to 210 °C | C[C@@H](OC(=O)Nc1ccc(-c2c(C#N)c3ccc(OC4CCS(=O)(=O)CC4)cc3n2C2CC2)cc1)C1CC1 [Compound 3199] |
| 193 to 195 °C | Cc1csc(Nc2ccc(-c3c(C#N)c4ccc(Oc5ncccc5F)cc4n3C3CC3)cc2)n1 [Compound 3270] |
| 170 to 180 °C | CC(C)OC(=O)Nc1ccc(-c2c(C#N)c3ccc(N4CCOCC4)cc3n2CC2CC2)cc1 [Compound 2891] |
| 128 to 132 °C | CCOc1ccc2c(Br)c(-c3ccc(NC(=O)OC(C)C)cc3)n(CC3CC3)c2c1 [compound 2691, [4-(3-bromo-1-cyclopropylmethyl-6-ethoxy-1H-indol-2-yl)-phenyl]-carbamic acid isopropyl ester] |
| 253 to 257 °C | CCn1c(-c2ccc(NC(=O)OC(C)C)cc2)c(C#N)c2ccc(OC3CCS(=O)(=O)CC3)cc21 [Compound 3230] |
| 244 to 246 °C | N#Cc1c(-c2ccc(NC3CC3)nc2)n(C2CCC2)c2cc(Oc3ncccn3)ccc12 [Compound 3313] |
| 181 to 182 °C | CC(C)OC(=O)Nc1ccc(-c2cc3ccc(Oc4nccnc4C#N)cc3n2CC2CC2)cc1 [Compound 3282] |
| 178 to 180 °C | CCCS(=O)(=O)Nc1ccc(-c2c(C#N)c3ccc(Oc4nccnc4C#N)cc3n2CC2CC2)cc1 [Compound 3224] |
| 223 to 225 °C | Cc1csc(Nc2ccc(-c3c(C#N)c4ccc(Oc5ncccn5)cc4n3C3CCC3)cc2)n1 [compound 3180, 1-cyclobutyl-2-[4-(4-methyl-thiazol-2-ylamino)-phenyl]-6-(pyrimidin-2-yloxy)-1H-indole-3-carbonitrile] |
| 199 to 201 °C | C[C@@H](OC(=O)Nc1ccc(-c2c(C#N)c3ccc(-c4ncccc4[N+](=O)[O-])cc3n2C2CCC2)cc1)C1CC1 [Compound 3247] |
| 212 to 214 °C | CCS(=O)(=O)Nc1ccc(-c2c(C#N)c3ccc(OC4CCOCC4)cc3n2C2CC2)cc1 [Compound 2912] |
| 250 to 252 °C | N#Cc1c(-c2ccc(Nc3nc(C(F)(F)F)cs3)cc2)n(C2CCC2)c2cc(OC3CCOCC3)ccc12 [Compound 3177] |
| 250 °C (dec.) | CCN(CC)C(=O)c1ccc2c(c1)c(C#N)c(-c1ccc(NC(=O)NC(C)C)cc1)n2C1CCC1 [Compound 3136] |
| 275 °C (dec.) | N#Cc1c(-c2ccc(NC(=O)Nc3n[nH]c(C4CC4)n3)cc2)n(C2CCC2)c2cc(Oc3ncccn3)ccc12 [Compound 3087] |

| melting point | Structure (SMILES) |
| --- | --- |
| 226 to 228 °C | Cc1cccnc1-c1ccc2c(C#N)c(-c3ccc(NC(=O)O[C@H](C)C4CC4)cc3)n(C3CCC3)c2c1 [Compound 2999] |
| 247 to 249 °C | CS(=O)(=O)Nc1ccc(-c2c(C#N)c3ccc(C(=O)N4CCOCC4)cc3n2C2CCC2)cc1 [Compound 2897] |
| 278 to 282 °C | CC(C)OC(=O)Nc1ccc(-c2c(C#N)c3ccc(OC4CCS(=O)(=O)CC4)cc3n2C2CC2)cc1 [Compound 3232] |
| 209 to 212 °C | C[C@H](NS(=O)(=O)Nc1ccc(-c2c(C#N)c3ccc(Oc4nccnc4C#N)cc3n2C2CCC2)cc1)C1CC1 [Compound 3276] |
| 149 to 152 °C | COCCOc1ccc2c(C#N)c(-c3ccc(C(=O)N[C@@H](C)c4ccccc4)cc3)n(C3CCC3)c2c1 [Compound 3131] |
| 235 to 239 °C | CCCS(=O)(=O)Nc1ccc(-c2c(C#N)c3ccc(Oc4ncccc4C#N)cc3n2CC2CC2)c(C)c1 [Compound 3249] |
| 178 to 179 °C | CCCS(=O)(=O)Nc1ccc(-c2c(C#N)c3ccc(OCCCN4C(=O)CN(C)C4=O)cc3n2C2CCC2)cc1 [Compound 3299] |
| 175 to 180 °C | CCOc1ccc2c(C#CC3CC3)c(-c3ccc(NC(=O)OC(C)C)cc3)n(CC3CC3)c2c1 [compound 2635, [4-(3-cyclopropylethynyl-1-cyclopropylmethyl-6-ethoxy-1H-indol-2-yl)-phenyl]-carbamic acid isopropyl ester] |
| 205 to 208 °C | Cc1cccc(Oc2ccc3c(c2)c(C#N)c(-c2ccc(NC(=O)O[C@H](C)C4CC4)cc2)n3C2CCC2)n1 [Compound 3257] |
| 189 to 196 °C | CCn1c(-c2ccc(NC(=O)O[C@H](C)C3CC3)cc2)c(C#N)c2ccc(OC3CCS(=O)(=O)CC3)cc21 [Compound 3231] |
| 166 to 168 °C | Cc1ccnc(Oc2ccc3c(C#N)c(-c4ccc(Nc5cc(C)nn5C)cc4)n(C4CCC4)c3c2)n1 [Compound 3287] |
| 214 to 220 °C | CC(C)(C)OC(=O)Nc1ccc(-c2c(C#N)c3ccc(OCS(C)(=O)=O)cc3n2CC2CC2)cc1 [Compound 3025] |
| 217 to 218 °C | C[C@@H](OC(=O)Nc1ccc(-c2c(C#N)c3cc(Oc4ncccc4C#N)ccc3n2C2CCC2)cc1)C1CC1 [Compound 3256] |
| 90 to 98 °C | C[C@@H](OC(=O)Nc1ccc(-c2c(C#N)c3ccc(-c4ncccc4C(F)(F)F)cc3n2C2CCC2)cc1)C1CC1 [Compound 2997] |
| 162 to 164 °C | C[C@@H](OC(=O)Nc1ccc(-c2c(C#N)c3ccc(OC4CCOCC4)cc3n2C2CC2)cc1)C(F)(F)F [Compound 2910] |
| 214 to 215 °C | Cc1nccnc1Oc1ccc2c(c1)c(C#N)c(-c1ccc(NC(=O)O[C@H](C)C3CC3)cc1)n2C1CCC1 [Compound 3254] |
| 232 to 235 °C | CCCS(=O)(=O)Nc1ccc(-c2c(C#N)c3ccc(Oc4ncccc4C#N)cc3n2CC2CC2)cc1 [Compound 3250] |
| 196 to 198 °C | CC(C)S(=O)(=O)Nc1ccc(-c2c(C#N)c3ccc(OC4COCOC4)cc3n2C2CCC2)cc1 [Compound 2920] |

The remaining lines, values behind:

| Structure (SMILES) | melting point |
| --- | --- |
| CCCS(=O)(=O)Nc1ccc(-c2c(C#N)c3ccc(N4CCN(CC5CC5)CC4)cc3n2CC)cc1 [Compound 1411] | 173 to 174 °C |
| CC(NC(=O)Nc1ccc(-c2c(C#N)c3ccc(Oc4ncccn4)cc3n2C2CCC2)cc1)c1ccc(F)cc1 (centres unmarked) [Compound 2710] | 240 to 242 °C |
| C[C@@H](OC(=O)Nc1ccc(-c2c(C#N)c3ccc(C(=O)N4CCCCC4)cc3n2C2CCC2)cc1)C1CC1 [Compound 2787] | 148 to 150 °C |
| COCCOc1ccc2c(C#N)c(-c3ccc(NC(=O)OC4CCC4)cc3)n(C(C)C)c2c1 [Compound 2609] | 165 to 166 °C |
| N#Cc1c(-c2ccc(NS(=O)(=O)C3CC3)cc2)n(C2CCC2)c2cc(OC3CCOCC3)ccc12 [Compound 2747] | 202 to 204 °C |
| CCCOC(=O)Nc1ccc(-c2c(C#N)c3ccc(OCCOC)cc3n2CC)cc1 [Compound 1369] | 154 to 156 °C |
| N#Cc1c(-c2ccc(OC(=O)NC3CCCC3)cc2)n(C2CCC2)c2cc(OC3CCOCC3)ccc12 [Compound 2811] | 168 to 169 °C |
| COCCOc1ccc2c(C#N)c(-c3ccc(NC(=O)OCc4ccccc4)cc3)n(C3CCC3)c2c1 [Compound 1402] | 144 to 145 °C |
| CC(OC(=O)Nc1ccc(-c2c(C#N)c3ccc(OC4CCOCC4)cc3n2C2CC2)cc1)C(F)(F)F (centres unmarked) [Compound 2649] | 207 to 209 °C |
| CCOc1ccc2c(C#N)c(-c3ccc(NC(=O)NCC(C)O)cc3)n(C3CCC3)c2c1 (centres unmarked) [Compound 1391] | 195 to 200 °C |
| COCCOc1ccc2c(C#N)c(-c3ccc(NC(=O)OC(C)C(F)(F)F)cc3)n(C(C)C)c2c1 (centres unmarked) [Compound 2686] | 162 to 165 °C |
| CCn1c(-c2ccc(N3CCCS3(=O)=O)cc2)c(C#N)c2ccc(OCCOC)cc21 [Compound 1332] | 213 to 215 °C |
| CCCN(CCC)C(=O)c1ccc2c(C#N)c(-c3ccc(NC(=O)O[C@H](C)C4CC4)cc3)n(C3CCC3)c2c1 [Compound 2271] | 160 to 163 °C |
| CC(C)NC(=O)Oc1ccc(-c2c(C#N)c3ccc(OC4CCOCC4)cc3n2CC2CC2)cc1 [Compound 2782] | 161 to 163 °C |
| CC(C)NC(=O)Nc1ccc(-c2c(C#N)c3cc(OCCCn4ccnc4)ccc3n2C2CCC2)cc1 [Compound 2727] | 232 to 234 °C |
| COc1ccnc(Oc2ccc3c(C#N)c(-c4ccc(NC(=O)O[C@H](C)C5CC5)cc4)n(C4CCC4)c3c2)n1 [Compound 2736] | 161 to 164 °C |
| CCn1ccnc1COc1ccc2c(C#N)c(-c3ccc(NC(=O)OC(C)C)cc3)n(C3CCC3)c2c1 [Compound 2881] | 197 to 203 °C |
| CC(C)S(=O)(=O)Nc1ccc(-c2c(C#N)c3ccc(OC4CCOCC4)cc3n2C2CCC2)cc1 [Compound 2748] | 211 to 213 °C |
| CCN(CC)C(=O)Oc1ccc(-c2c(C#N)c3ccc(OC)cc3n2CC)cc1 [Compound 1348] | 134.2 to 139.5 °C |
| CCCNC(=O)Nc1ccc(-c2c(C#N)c3ccc(O[Si](C)(C)C(C)(C)C)cc3n2CC)cc1 [Compound 1387] | 65 to 70 °C |
| COCCOc1ccc2c(C#N)c(-c3ccc(NC(=O)OC(C)C)cc3)n(C3CCC3)c2c1 [Compound 1399] | 125 to 126 °C |
| CC(OC(=O)Nc1ccc(-c2c(C#N)c3ccc(OCC4OCCO4)cc3n2C2CCC2)cc1)C(F)(F)F (centres unmarked) [Compound 2646] | 187 to 189 °C |
| COCCN(C)C(=O)c1ccc2c(C#N)c(-c3ccc(NC(=O)OC(C)C)cc3)n(C3CCC3)c2c1 [Compound 2659] | 102 to 105 °C |
| CC(C)[C@H](C)OC(=O)Nc1ccc(-c2c(C#N)c3ccc(OC4COCOC4)cc3n2C2CCC2)cc1 [Compound 2859] | 200 to 201 °C |
| CC(C)C(C)OC(=O)Nc1ccc(-c2c(C#N)c3ccc(OC4CCOC4)cc3n2C2CC2)cc1 (centres unmarked) [Compound 1446] | 207 to 208 °C |
| C[C@@H](OC(=O)Nc1ccc(-c2c(C#N)c3ccc(C(=O)O)cc3n2C2CCC2)cc1)C1CC1 [Compound 2778] | 222 to 225 °C |
